From US8058242B2, “Chimeric proteins with natriuretic activity” (The University of Queensland, priority 2004, dated 2011) come the findings set out here.

By EC50 is commonly meant the concentration at which the effect is half-maximal. Low readings indicate an effect from little substance, high ones a need for much substance.

Data set [1] has as its target Endopeptidase (NEP) (EC 3.4.24.11) (Homo sapiens, UniProt P08473). Briefly: Stability to enzymatic degradation by NEP (Examples 7, 16). The format is in vitro ADME. The conditions noted are these: over the 360 min measurement period. Here is the method:
(§1) The incubation buffer contained 100 mM Tris/HCl and 150 mM NaCl and the pH was adjusted to 7.2-7.4. In each assay, 100 μl of peptide [500 μM] was incubated with 300 μl buffer (with 500 ng Endopeptidase (NEP) or 10 μg Plasmin) at 37° C. 50 μl aliquots were taken at times 5 min, 30 min, 60 min, 90 min, 180 min and 24 h. The reaction was quenched by heating to 100° C. for 4 min and the remaining peptide concentrations measured by RP-HPLC. Note that the levels of Plasmin required to degrade these peptides was several thousands time the levels present in human plasma.
(§2) The stability of TDT and was investigated using the same enzymatic degradation assays (NEP, plasmin, pepsin) disclosed in Example 7. […] It is also evident that the increased NEP stability cannot be explained by the length of the tail region alone as the NEP cleavage site residues at the N-terminal end of the loop region.

The target of data set [2] is T1, Plasmin (Homo sapiens, UniProt P00747).
T1 construct: with 500 ng Endopeptidase (NEP) or 10 μg Plasmin
T1 sequence (P00747 97-580 partner limits assumed, species assumed): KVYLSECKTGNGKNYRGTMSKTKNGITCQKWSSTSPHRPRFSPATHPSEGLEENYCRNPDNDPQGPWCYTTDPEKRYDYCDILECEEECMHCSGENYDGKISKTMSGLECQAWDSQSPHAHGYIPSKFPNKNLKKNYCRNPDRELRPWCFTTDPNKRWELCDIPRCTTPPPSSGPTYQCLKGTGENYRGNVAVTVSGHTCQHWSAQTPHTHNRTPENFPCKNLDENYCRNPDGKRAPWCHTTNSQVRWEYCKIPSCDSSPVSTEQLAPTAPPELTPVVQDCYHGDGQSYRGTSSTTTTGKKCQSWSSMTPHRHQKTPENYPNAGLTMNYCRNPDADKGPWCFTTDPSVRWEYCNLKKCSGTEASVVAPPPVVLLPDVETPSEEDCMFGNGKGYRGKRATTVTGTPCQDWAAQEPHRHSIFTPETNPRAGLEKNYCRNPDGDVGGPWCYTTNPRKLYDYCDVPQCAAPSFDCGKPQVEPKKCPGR
T1 sequence (P00747 581-810 limits assumed, species assumed): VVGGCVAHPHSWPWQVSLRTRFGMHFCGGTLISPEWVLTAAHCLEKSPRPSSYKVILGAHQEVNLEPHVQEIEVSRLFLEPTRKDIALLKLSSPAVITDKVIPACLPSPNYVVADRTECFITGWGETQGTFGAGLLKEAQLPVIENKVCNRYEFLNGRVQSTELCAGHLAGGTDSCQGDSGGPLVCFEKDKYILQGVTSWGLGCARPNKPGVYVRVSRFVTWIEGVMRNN
Nature of the data set: Stability to enzymatic degradation by plasmin (Examples 7, 16). The data set is classed as in vitro ADME. Here is the method:
as §1, §2

The subject of data set [3] is pepsin. Nature of the data set: Stability to enzymatic degradation by pepsin (Example 16). The data set is classed as in vitro ADME.
Source text: as §2

Data set [4] has as its target T2, NPR-A signaling in HeLa cells (Homo sapiens, UniProt P16066).
T2 construct: Cyclic GMP (cGMP) elevation in HeLa cells in response to Natriuretic Peptide stimulation; endogenous in cells; host or cells: HeLa cells
T2 sequence (P16066 33-1061): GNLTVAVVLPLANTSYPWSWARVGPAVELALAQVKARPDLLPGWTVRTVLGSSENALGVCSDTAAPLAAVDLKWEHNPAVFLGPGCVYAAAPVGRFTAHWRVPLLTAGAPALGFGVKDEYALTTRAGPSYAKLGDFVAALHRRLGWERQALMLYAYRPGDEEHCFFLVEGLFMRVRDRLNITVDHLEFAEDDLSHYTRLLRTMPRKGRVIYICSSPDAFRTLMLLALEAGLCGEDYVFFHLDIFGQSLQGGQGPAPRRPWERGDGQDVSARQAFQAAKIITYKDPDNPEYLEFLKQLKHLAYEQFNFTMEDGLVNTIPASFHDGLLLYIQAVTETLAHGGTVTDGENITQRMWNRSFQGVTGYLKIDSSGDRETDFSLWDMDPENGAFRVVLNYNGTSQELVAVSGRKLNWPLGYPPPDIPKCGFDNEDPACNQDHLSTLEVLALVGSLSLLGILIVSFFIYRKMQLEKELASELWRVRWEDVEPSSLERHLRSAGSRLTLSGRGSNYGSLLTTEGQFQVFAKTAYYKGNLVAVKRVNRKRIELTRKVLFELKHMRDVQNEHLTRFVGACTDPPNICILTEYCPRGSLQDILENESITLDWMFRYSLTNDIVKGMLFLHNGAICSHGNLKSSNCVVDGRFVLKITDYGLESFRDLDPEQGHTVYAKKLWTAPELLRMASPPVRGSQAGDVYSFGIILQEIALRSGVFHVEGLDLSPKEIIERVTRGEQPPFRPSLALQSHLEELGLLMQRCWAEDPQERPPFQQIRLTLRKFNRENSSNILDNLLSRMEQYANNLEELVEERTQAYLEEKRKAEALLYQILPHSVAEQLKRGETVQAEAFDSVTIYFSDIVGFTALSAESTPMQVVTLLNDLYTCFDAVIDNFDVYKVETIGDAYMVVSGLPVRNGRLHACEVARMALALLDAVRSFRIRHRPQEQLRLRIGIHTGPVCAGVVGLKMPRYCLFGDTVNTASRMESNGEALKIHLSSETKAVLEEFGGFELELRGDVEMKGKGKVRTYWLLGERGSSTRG
Briefly: cGMP AlphaScreen assay in HeLa cells (Examples 14, 15). The format is cell-based. The conditions noted are these: 30 minutes at 37° C. Here is the method: HeLa cells were maintained in RPMI cell culture medium (Gihco Invitrogen, Mt Waverley, Australia) supplemented with 10% Foetal Bovine Serum (Cambrex Bio Science, Rockland, USA). Upon reaching confluence, cells were sub-cultured such that they would be 70-90% confluent at time of assay.
Cyclic GMP (cGMP) elevation in HeLa cells in response to Natriuretic Peptide stimulation was performed using a cGMP AlphaScreen kit (PerkinElmer, Boston, USA), as follows for normal experiments: Cells were detached, pelleted to remove growth medium, and resuspended in Stimulation Buffer (Hank's Balanced Salt Solution, 0.1% Bovine Serum Albumin [BSA] (Sigma-Aldrich, Castle Hill, Australia), 1 mM 3-Isobutyl-1-methylxanthine [IBMX] (Sigma-Aldrich, Castle Hill, Australia)) and diluted to 6×10^6 cells per mL (30 000 cells per 5 μL). 5 μL of cells were added to wells of white 384-well OptiPlates (PerkinElmer, Boston, USA), and stimulated with increasing concentrations of peptide for 30 minutes at 37° C. Cells were then lysed with 10 μL Lysis buffer (dH2O, 0.3% Tween-20 (Sigma-Aldrich, Castle Hill, Australia), 5 mM HEPES (JRH Biosciences, Kansas, USA) and 0.1% BSA) and 5 μL acceptor bead mix (10 μL per mL acceptor beads and 1/3000 anti-cGMP antibody (BioVision, Mountain View, USA) in lysis buffer) added per well in the dark. Plates were incubated in the dark at room temperature for 30 minutes, then 5 μL donor bead mix (10 μL per ML donor beads and 0.3 nM biotinylated cGMP in lysis buffer) was added per well in the dark and the plate incubated overnight at room temperature. Signal was read using an EnVision plate reader (PerkinElmer, Boston, USA) and data analysed using Prism software. The cGMP standard curve was performed as per manufacturer's instructions.
To examine whether TNPc and synthetic analogs produced in the inventors' laboratory could stimulate NPR-A signaling, cGMP elevations in HeLa cells in response to these peptides were measured, as described above.

Each structure is given as a SMILES string. Positions of bridges follow the written chain, without caps; N, C: chain ends. Residues, ends and D or L forms follow the SMILES beside them.

Endopeptidase (NEP) (EC 3.4.24.11), sequence (P08473 whole entry): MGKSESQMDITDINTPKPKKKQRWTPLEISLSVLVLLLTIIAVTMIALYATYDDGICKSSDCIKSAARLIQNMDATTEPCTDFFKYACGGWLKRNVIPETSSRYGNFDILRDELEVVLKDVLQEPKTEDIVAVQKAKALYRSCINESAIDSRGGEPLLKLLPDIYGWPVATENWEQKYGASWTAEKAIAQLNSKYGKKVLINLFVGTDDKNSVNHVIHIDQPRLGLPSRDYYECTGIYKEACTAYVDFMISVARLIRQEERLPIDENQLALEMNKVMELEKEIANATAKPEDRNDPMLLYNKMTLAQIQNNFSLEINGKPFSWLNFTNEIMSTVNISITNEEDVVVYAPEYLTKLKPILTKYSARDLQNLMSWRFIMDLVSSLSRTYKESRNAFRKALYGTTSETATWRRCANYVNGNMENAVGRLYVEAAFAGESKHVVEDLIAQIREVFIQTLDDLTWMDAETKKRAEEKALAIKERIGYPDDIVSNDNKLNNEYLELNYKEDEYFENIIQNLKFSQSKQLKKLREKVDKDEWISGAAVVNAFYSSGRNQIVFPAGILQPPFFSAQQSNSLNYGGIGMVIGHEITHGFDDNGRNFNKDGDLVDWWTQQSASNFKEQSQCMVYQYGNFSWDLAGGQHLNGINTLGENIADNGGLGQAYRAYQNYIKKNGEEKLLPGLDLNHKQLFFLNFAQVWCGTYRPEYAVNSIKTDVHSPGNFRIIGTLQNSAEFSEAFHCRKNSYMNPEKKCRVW

For the compound `CC[C@H](C)[C@H](NC(=O)[C@H](CCCCN)NC(=O)[C@H](CO)NC(=O)[C@H](CC(=O)O)NC(=O)[C@@H](N)CO)C(=O)NCC(=O)N[C@@H](CC(N)=O)C(=O)NCC(=O)N[C@H]1CSSC[C@@H](C(=O)N[C@@H](CC(N)=O)C(=O)N[C@@H](CCCNC(=N)N)C(=O)N[C@H](C(=O)N[C@@H](CCSC)C(=O)N[C@@H](CCC(N)=O)C(=O)N[C@@H](CC(N)=O)C(=O)N2CCC[C@H]2C(=O)N2CCC[C@H]2C(=O)N[C@@H](CCCCN)C(=O)N[C@@H](CCCCN)C(=O)N[C@@H](Cc2ccccc2)C(=O)N[C@@H](CO)C(=O)NCC(=O)N[C@@H](CCC(=O)O)C(=O)O)[C@@H](C)CC)NC(=O)CNC(=O)[C@H](CC(C)C)NC(=O)[C@H](CC(N)=O)NC(=O)[C@H](CO)NC(=O)[C@H](C(C)C)NC(=O)[C@H](Cc2c[nH]cn2)NC(=O)[C@H](CC(N)=O)NC(=O)[C@H]([C@@H](C)CC)NC(=O)[C@H](CCCNC(=N)N)NC(=O)[C@H](CC(=O)O)NC(=O)[C@H]([C@@H](C)CC)NC(=O)[C@H](CCCCN)NC(=O)[C@H](Cc2c[nH]cn2)NC(=O)CNC(=O)[C@H](Cc2ccccc2)NC1=O` [TDT] (H-SDSKIGNGCFGHKIDRINHVSNLGCNRIMQNPPKKFSGE-OH; disulfide 9-25), the “degradation by NEP” value in data set [1] was “minimal degradation”. In addition, in data set [2], the “stability against plasmin compared with ANP” value is on record as “more stable than ANP”. Further, the “stability against pepsin compared with ANP” value in data set [3] is listed as “more stable than ANP”. In addition, the EC50 in data set [4] (EC50, cGMP accumulation in HeLa cells) was 70.4 nM; in data set [4] (−Log10EC50 (pEC50) ± Standard Error, cGMP accumulation in HeLa cells), 61.9 nM.
